One assay concerns HBV. Description: HBV replication inhibition assay (BDNA assay) in HepG2.2.15 cells. It counts as cell-based. To be noted: HBV replication assay (BDNA assay), HepG2.2.15 cells; read-out: DNA EC50. The essentials: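 Supernatant encapsidated HBV DNA was measured by bDNA after DNase digestion and proteinase K release. Stably HBV-integrated HepG2.2.15 cells had two 3-day compound exposures (0.5% DMSO). Signals were background-subtracted and normalized to DMSO wells, and EC50 was obtained by four-parameter fit.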
For the molecule `C[C@@H]1Cc2nn3c(c2CN1C(=O)Nc1cc(Br)c(F)cc1F)C(=O)N(C)OC(CN(C)C)C3` (stereo in doubt) [Compound 100_D2, (4R*,9R)—N-(5-bromo-2,4-difluorophenyl)-4-((dimethylamino)methyl)-2,9-dimethyl-1-oxo-1,4,5,8,9,11-hexahydropyrido[4′,3′:3,4]pyrazolo[5,1-d][1,2,5]oxadiazepine-10(2H)-carboxamide], the EC50 lay in the range of 1 to 100 nM. For `CNC(=O)C1Cn2nc3c(c2C(=O)N(C)O1)CN(C(=O)Nc1cc(Cl)c(F)cc1F)[C@H](C)C3` (stereo in doubt) [Compound 111_D1, (4S*,9R)—N10-(5-chloro-2,4-difluorophenyl)-N4,2,9-trimethyl-1-oxo-1,4,5,8,9,11-hexahydropyrido[4′,3′:3,4]pyrazolo[5,1-d][1,2,5]oxadiazepine-4,10(2H)-dicarboxamide], the EC50 is more than 1000 nM. Take `CNC(=O)C1Cn2nc3c(c2C(=O)N(C)O1)CN(C(=O)Nc1cc(Cl)c(F)cc1F)[C@H](C)C3` (stereo in doubt) [Compound 111_D2, (4R*,9R)—N10-(5-chloro-2,4-difluorophenyl)-N4,2,9-trimethyl-1-oxo-1,4,5,8,9,11-hexahydropyrido[4′,3′:3,4]pyrazolo[5,1-d][1,2,5]oxadiazepine-4,10(2H)-dicarboxamide]: the EC50 was in the range of 1 to 100 nM. Still for that read-out and setting: as for `CNC(=O)C1Cn2nc3c(c2C(=O)N(C)O1)CN(C(=O)Nc1ccc(F)c(C#N)c1)[C@H](C)C3` (stereo in doubt) [Compound 112_D1, (4S*,9R)—N10-(3-cyano-4-fluorophenyl)-N4,2,9-trimethyl-1-oxo-1,4,5,8,9,11-hexahydropyrido[4′,3′:3,4]pyrazolo[5,1-d][1,2,5]oxadiazepine-4,10(2H)-dicarboxamide], the figure is more than 1000 nM. For the molecule `CNC(=O)C1Cn2nc3c(c2C(=O)N(C)O1)CN(C(=O)Nc1ccc(F)c(C#N)c1)[C@H](C)C3` (stereo in doubt) [Compound 112_D2, (4R*,9R)—N10-(3-cyano-4-fluorophenyl)-N4,2,9-trimethyl-1-oxo-1,4,5,8,9,11-hexahydropyrido[4′,3′:3,4]pyrazolo[5,1-d][1,2,5]oxadiazepine-4,10(2H)-dicarboxamide], the EC50 lay within 1 to 100 nM.

Turning to `C[C@@H]1Cc2nn3c(c2CN1C(=O)Nc1ccc(F)c(C(F)(F)F)c1)C(=O)N(C)OC(CN)C3` (stereo in doubt) [Compound 116_D2, (4R*,9R)-4-(aminomethyl)-N-(4-fluoro-3-(trifluoromethyl)phenyl)-2,9-dimethyl-1-oxo-1,4,5,8,9,11-hexahydropyrido[4′,3′:3,4]pyrazolo[5,1-d][1,2,5]oxadiazepine-10(2H)-carboxamide], the EC50 was in the range of 1 to 100 nM. `C[C@@H]1Cc2nn3c(c2CN1C(=O)Nc1ccc(F)c(Br)c1)C(=O)N(C)OC(CN)C3` (stereo in doubt) [Compound 117_D2, (4R*,9R)-4-(aminomethyl)-N-(3-bromo-4-fluorophenyl)-2,9-dimethyl-1-oxo-1,4,5,8,9,11-hexahydropyrido[4′,3′:3,4]pyrazolo[5,1-d][1,2,5]oxadiazepine-10(2H)-carboxamide]: the concentration for a half-maximal effect (EC50) was in the range of 1 to 100 nM.

Still in this assay, the particulars now being: Hepatitis B virus, HepG2.2.15, HBV replication assay (BDNA assay), HepG2.2.15 cells; read-out: DNA EC50.
As to `CC[C@H]1Cc2nn3c(c2CN1C(=O)Nc1ccc(F)c(Cl)c1)C(=O)N(C)O[C@H](CO)C3` (stereo in doubt) [Compound 109_D1, (4S*,9S*)—N-(3-chloro-4-fluorophenyl)-9-ethyl-4-(hydroxymethyl)-2-methyl-1-oxo-1,4,5,8,9,11-hexahydropyrido[4′,3′:3,4]pyrazolo[5,1-d][1,2,5]oxadiazepine-10(2H)-carboxamide], the EC50 is 100 to 500 nM. The same measure, in the same setting: as for `CC[C@@H]1Cc2nn3c(c2CN1C(=O)Nc1ccc(F)c(Cl)c1)C(=O)N(C)O[C@H](CO)C3` (stereo in doubt) [Compound 109_D2, (4S*,9R*)—N-(3-chloro-4-fluorophenyl)-9-ethyl-4-(hydroxymethyl)-2-methyl-1-oxo-1,4,5,8,9,11-hexahydropyrido[4′,3′:3,4]pyrazolo[5,1-d][1,2,5]oxadiazepine-10(2H)-carboxamide], the figure is 100 to 500 nM; as for `CC[C@@H]1Cc2nn3c(c2CN1C(=O)Nc1ccc(F)c(Cl)c1)C(=O)N(C)O[C@@H](CO)C3` (stereo in doubt) [Compound 109_D3, (4R*,9R*)—N-(3-chloro-4-fluorophenyl)-9-ethyl-4-(hydroxymethyl)-2-methyl-1-oxo-1,4,5,8,9,11-hexahydropyrido[4′,3′:3,4]pyrazolo[5,1-d][1,2,5]oxadiazepine-10(2H)-carboxamide], 500 to 1000 nM; as for `CC[C@H]1Cc2nn3c(c2CN1C(=O)Nc1ccc(F)c(Cl)c1)C(=O)N(C)O[C@@H](CO)C3` (stereo in doubt) [Compound 109_D4, (4R*,9S*)—N-(3-chloro-4-fluorophenyl)-9-ethyl-4-(hydroxymethyl)-2-methyl-1-oxo-1,4,5,8,9,11-hexahydropyrido[4′,3′:3,4]pyrazolo[5,1-d][1,2,5]oxadiazepine-10(2H)-carboxamide], 100 to 500 nM. For the molecule `CN1O[C@H](CN)Cn2nc3c(c2C1=O)CN(C(=O)Nc1ccc(F)c(C#N)c1)CC3` (stereo in doubt) [Compound 114_E1, (S*)-4-(aminomethyl)-N-(3-cyano-4-fluoro-phenyl)-2-methyl-1-oxo-5,8,9,11-tetrahydro-4H-pyrido[2,3]pyrazolo[2,4-d][1,2,5]oxadiazepine-10-carboxamide], the EC50 was 1 to 100 nM. On the same count and under the same terms, the value for `C[C@@H]1Cc2nn3c(c2CN1C(=O)Nc1ccc(F)c(C(F)(F)F)c1)C(=O)N(C)OC(CN)C3` (stereo in doubt) [Compound 116_D1, (4S*,9R)-4-(aminomethyl)-N-(4-fluoro-3-(trifluoromethyl)phenyl)-2,9-dimethyl-1-oxo-1,4,5,8,9,11-hexahydropyrido[4′,3′:3,4]pyrazolo[5,1-d][1,2,5]oxadiazepine-10(2H)-carboxamide] was 1 to 100 nM. As to `C[C@@H]1Cc2nn3c(c2CN1C(=O)Nc1ccc(F)c(Br)c1)C(=O)N(C)OC(CN)C3` (stereo in doubt) [Compound 117_D1, (4S*,9R)-4-(aminomethyl)-N-(3-bromo-4-fluorophenyl)-2,9-dimethyl-1-oxo-1,4,5,8,9,11-hexahydropyrido[4′,3′:3,4]pyrazolo[5,1-d][1,2,5]oxadiazepine-10(2H)-carboxamide], the EC50 lay in the range of 1 to 100 nM.

Consider `C[C@@H]1Cc2nn3c(c2CN1C(=O)Nc1ccc(F)c(Cl)c1)C(=O)N(C)OC(COCC(F)F)C3` (stereo in doubt) [Compound 121_D2, (4R*,9R)—N-(3-chloro-4-fluorophenyl)-4-((2,2-difluoroethoxy)methyl)-2,9-dimethyl-1-oxo-1,4,5,8,9,11-hexahydropyrido[4′,3′:3,4]pyrazolo[5,1-d][1,2,5]oxadiazepine-10(2H)-carboxamide], for which the EC50 was in the range of 1 to 100 nM. For `C[C@@H]1Cc2nn3c(c2CN1C(=O)Nc1ccc(F)c(Br)c1)C(=O)N(C)OC(COCC(F)F)C3` (stereo in doubt) [Compound 122_D1, (4S*,9R)—N-(3-bromo-4-fluorophenyl)-4-((2,2-difluoroethoxy)methyl)-2,9-dimethyl-1-oxo-1,4,5,8,9,11-hexahydropyrido[4′,3′:3,4]pyrazolo[5,1-d][1,2,5]oxadiazepine-10(2H)-carboxamide], the EC50 fell in the range of 1 to 100 nM.

The record behind these values is US10987359B2, “Oxadiazepinone derivatives and methods of treating hepatitis B infections” (priority 2016, dated 2021).
